Measured values from patent publication US20030157162A1, “Liposome-encapsulated opioid analgesics” (priority 2002, published 2003).
Counter-ions that a name gives are not always drawn.

Tests used:
[1] = In vivo pharmacokinetics in dogs (ELISA, NONMEM model, trapezoidal AUC); parameters: species or system dog
Description: Twenty-five adult beagles (n=14; 12 female, 2 male) and hounds (n=11; 9 female, 2 male) that were 1 to 5 years old (median age 1.5 years) and weighed between 6.9 kg and 35.7 kg (median weight=9.46 kg) were used. Normal health status and organ function were confirmed by physical exam and a complete blood count and serum chemistry profile prior to inclusion in the study. None of the animals received any medications in the 2 weeks prior to study. Animals were housed individually (hounds) or in groups of 2 to 4 (beagles), and were fed a commercial diet and water ad libitum throughout the study.
(§1) Two doses of liposome-encapsulated oxymorphone and two equipotent doses of standard pharmaceutical oxymorphone were investigated. One dose of the liposomal vehicle was also investigated to confirm the absence of pharmacodynamic properties of the vehicle. Each dog received only 1 treatment and was then removed from further study. Treatment groups were as follows: Group 1 (n=6) liposome-encapsulated oxymorphone (1.0 mg/kg); Group 2 (n=5) liposome-encapsulated oxymorphone (0.5 mg/kg); Group 3 (n=6) standard pharmaceutical oxymorphone (NUMORPHAN®, Endo Pharmaceuticals Inc., Chadds Ford, Pa.) (0.1 mg/kg); Group 4 (n=6) standard pharmaceutical oxymorphone (0.05 mg/kg); Group 5 (n=2) liposomal vehicle (0.7 ml). Liposome-encapsulated oxymorphone or vehicle were drawn from a stock solution on ice via an 18 gauge needle attached to a 1- or 3-ml syringe and administered subcutaneously slowly via a 23 gauge needle. All injections were made in a shaved area of the thigh such that potential skin reactions to the liposomal preparations could be assessed.
A 1 ml blood sample was collected percutaneously from the left and right cephalic or saphenous veins, in rotating order. In groups 1 and 2 (liposome-encapsulated oxymorphone groups), blood was collected before and 0.5, 1, 2, 4, 8, 12, 16, and 24 hours after drug administration, and daily for 5 days at the same time of day as treatment administration had occurred. In groups 3, 4, and 5 (standard oxymorphone and liposomal vehicle groups), blood was collected before and 0.5, 1, 2, 4, 8, 12, and 24 hours after drug administration. Blood samples were transferred to centrifuge tubes and held on ice for a maximum of 4 hours, then centrifuged at 5° C. for 10 minutes at 5000×g. Serum was stored at −70° C. until analysis.
Oxymorphone concentrations in serum were quantitated using a commercial ELISA (Neogen Inc, Lexington, Ky.).
Plasma oxymorphone concentrations were used in pharmacokinetic model building using a non-linear, mixed effect computer program (NONMEM User's Guides, (1989-98) Beal and Sheiner (Eds.) GloboMax, LLC, Hanover, Md.). The data from all animals were evaluated concurrently. The assumption was made that the subcutaneous injection of the standard and liposomal oxymorphone delivered drug to an extravascular compartment from which unidirectional absorption into the blood occurred. In the case of the liposomal preparation, an additional, unidirectional rate constant of flux from the liposome to the surrounding subcutaneous compartment was assumed.
This was tested in the pharmacokinetic model construction with allowance for a variable (fitted) fraction of the liposomal dose administered directly to the subcutaneous space in the aqueous carrier.
The NONMEM model included an intersubject variability for the parameters of distribution volume, fraction of drug delivered to of the liposome, and drug flux into and out of the plasma. The first-order rate of drug loss from the liposome was assumed to be a physiochemical constant, and was not allowed to vary between animals. Animal weight and sex were tested as continuous and categorical covariates affecting volume and clearance. Pharmacokinetic models that included a tissue distribution compartment were over-parameterized and were discarded. […]

dogs = assay: Sedation score, heart rate, respiratory rate, temperature and skin reaction in dogs; assay type: in vivo, dog
Description: as §1
A sedation score was recorded on each dog prior to drug administration and at the same times as venous blood collection. The sedation score included recording of heart rate by auscultation, respiratory rate by observation of movement of the thoracic wall, and rectal temperature via a digital rectal thermometer. The same person assessed sedation scores throughout the study. Changes in sedation score, heart rate, respiratory rate, and temperature were analyzed using repeated measures ANOVA, with p<0.05 considered significant.

## CN1CC[C@]23c4c5ccc(O)c4O[C@H]2C(=O)CC[C@@]3(O)[C@H]1C5 [standard oxymorphone, oxymorphone hydrochloride]
[1]; 0.05 mg/kg
  AUC (dose-normalised, median): 128.0 (ng-hr/L)/mg/kg)
  K23 (from subcutaneous tissue to systemic tissue): 0.400 h⁻¹
  K30 (from systemic tissue to excretion from body): 5.40 h⁻¹
  V: 2.03 L
[1]; 0.1 mg/kg
  AUC (dose-normalised, median): 135.9 (ng-hr/L)/mg/kg)
  K23 (from subcutaneous tissue to systemic tissue): 0.348 h⁻¹
  K30 (from systemic tissue to excretion from body): 7.19 h⁻¹
  V: 1.50 L
dogs; 0.05 and 0.1 mg/kg
  time of peak sedation score: 30 min
dogs; either dose
  respiratory rate and rectal temperature compared to baseline: moderate and statistically insignificant decrease
dogs; s.c.
  local skin reactions at the site of injection: no local skin reactions
dogs; within clinically normal range
  heart rate from baseline to 2 hours after drug administration: significant decrease
